Laboratory results from patent US9546141B2, “Salts” (Sprout Pharmaceuticals, Inc., priority 2008, dated 2017).

Tests used:
[1] = Solubility of the crystalline salt forms in water; type: physicochemical; conditions: shaken 2 hours, filtered, UV-spectroscopy
Description: Solubility of the different crystalline salt forms in water was determined by adding […] of compound into 5 ml of water at room temperature. The mixture was vigorously shaken for 2 hours at room temperature. Afterwards the undissolved solid was removed by filtering through a 0.45 μm PTFE filter, in the filtrate the dissolved amount of compound was determined by UV-spectroscopy.

[2] = Hygroscopicity (IGAsorp water sorption monitor); type: physicochemical; conditions: room temperature
Description: IGAsorp water sorption monitor from Hiden Isochema was used for the analysis of the hygroscopical behaviour at room temperature. • humidity profile: from 10-90% r.h. in steps of 10%, sorption as well as desorption profiles were registered • weight-in quantity: 10-20 mg

SMILES: O=C(O)C(=O)O.O=c1[nH]c2ccccc2n1CCN1CCN(c2cccc(C(F)(F)F)c2)CC1 [IX, 1-[2-(4-(3-trifluoro-methyl-phenyl)piperazin-1-yl)ethyl]-2,3-dihydro-1H-benzimidazol-2-one oxalate]
- solubility in water at room temperature [1]: 1700 µg/mL
- hygroscopicity expressed in the uptake of water in the range of 10-90% relative humidity [2]: 0.7%

SMILES: CS(=O)(=O)O.O=c1[nH]c2ccccc2n1CCN1CCN(c2cccc(C(F)(F)F)c2)CC1 [VII, 1-[2-(4-(3-trifluoro-methyl-phenyl)piperazin-1-yl)ethyl]-2,3-dihydro-1H-benzimidazol-2-one mesylate]
- solubility in water at room temperature [1]: 1100 µg/mL
- hygroscopicity expressed in the uptake of water in the range of 10-90% relative humidity [2]: 3.4%

SMILES: CC1(C)C2CCC1(CS(=O)(=O)O)C(=O)C2.O=c1[nH]c2ccccc2n1CCN1CCN(c2cccc(C(F)(F)F)c2)CC1 [XXXII, 1-[2-(4-(3-trifluoro-methyl-phenyl)piperazin-1-yl)ethyl]-2,3-dihydro-1H-benzimidazol-2-one camphorsulfonate]
- solubility in water at room temperature [1]: 700 µg/mL
- hygroscopicity expressed in the uptake of water in the range of 10-90% relative humidity [2]: 0.13%

SMILES: CCS(=O)(=O)O.O=c1[nH]c2ccccc2n1CCN1CCN(c2cccc(C(F)(F)F)c2)CC1 [XV, 1-[2-(4-(3-trifluoro-methyl-phenyl)piperazin-1-yl)ethyl]-2,3-dihydro-1H-benzimidazol-2-one ethansulfonate]
- solubility in water at room temperature [1]: 1300 µg/mL
- hygroscopicity expressed in the uptake of water in the range of 10-90% relative humidity [2]: 0.32%

SMILES: O=C(O)/C=C/C(=O)O.O=c1[nH]c2ccccc2n1CCN1CCN(c2cccc(C(F)(F)F)c2)CC1 [XXXI, 1-[2-(4-(3-trifluoro-methyl-phenyl)piperazin-1-yl)ethyl]-2,3-dihydro-1H-benzimidazol-2-one fumarate]
- solubility in water at room temperature [1]: 500 µg/mL
- hygroscopicity expressed in the uptake of water in the range of 10-90% relative humidity [2]: 0.28%

SMILES: Cc1ccc(S(=O)(=O)O)cc1.O=c1[nH]c2ccccc2n1CCN1CCN(c2cccc(C(F)(F)F)c2)CC1 [XXX, 1-[2-(4-(3-trifluoro-methyl-phenyl)piperazin-1-yl)ethyl]-2,3-dihydro-1H-benzimidazol-2-one tosylate]
- solubility in water at room temperature [1]: 90 µg/mL
- hygroscopicity expressed in the uptake of water in the range of 10-90% relative humidity [2]: 0.25%

SMILES: O=C1NS(=O)(=O)c2ccccc21.O=c1[nH]c2ccccc2n1CCN1CCN(c2cccc(C(F)(F)F)c2)CC1 [XI, 1-[2-(4-(3-trifluoro-methyl-phenyl)piperazin-1-yl)ethyl]-2,3-dihydro-1H-benzimidazol-2-one sacharinate]
- solubility in water at room temperature [1]: 300 µg/mL
- hygroscopicity expressed in the uptake of water in the range of 10-90% relative humidity [2]: 0.24%

SMILES: O=S(=O)(O)c1ccccc1.O=c1[nH]c2ccccc2n1CCN1CCN(c2cccc(C(F)(F)F)c2)CC1 [VIII, 1-[2-(4-(3-trifluoro-methyl-phenyl)piperazin-1-yl)ethyl]-2,3-dihydro-1H-benzimidazol-2-one besylate]
- solubility in water at room temperature [1]: 100 µg/mL
- hygroscopicity expressed in the uptake of water in the range of 10-90% relative humidity [2]: 0.15%

SMILES: O=C(O)CO.O=c1[nH]c2ccccc2n1CCN1CCN(c2cccc(C(F)(F)F)c2)CC1 [XXXIII, 1-[2-(4-(3-trifluoro-methyl-phenyl)piperazin-1-yl)ethyl]-2,3-dihydro-1H-benzimidazol-2-one glycolate]
- solubility in water at room temperature [1]: 500 µg/mL
- hygroscopicity expressed in the uptake of water in the range of 10-90% relative humidity [2]: 0.20%
